Assay results from patent US7517517B2 (Janssen Pharmaceutica N.V., priority 2002, dated 2009).

Target: T1, cloned rat mGlu1 receptor (Rattus norvegicus, UniProt P23385)
T1 construct: expressed in transfected cells; host or cells: CHO cells
Test: Signal transduction at the cloned rat mGlu1 receptor in CHO cells (glutamate-induced Ca2+ rise, FLIPR)
Type: cell-based
Details: 50% inhibition of the glutamate-induced intracellular Ca2+ rise; CHO cells, FLIPR

T1 sequence (P23385 19-1199): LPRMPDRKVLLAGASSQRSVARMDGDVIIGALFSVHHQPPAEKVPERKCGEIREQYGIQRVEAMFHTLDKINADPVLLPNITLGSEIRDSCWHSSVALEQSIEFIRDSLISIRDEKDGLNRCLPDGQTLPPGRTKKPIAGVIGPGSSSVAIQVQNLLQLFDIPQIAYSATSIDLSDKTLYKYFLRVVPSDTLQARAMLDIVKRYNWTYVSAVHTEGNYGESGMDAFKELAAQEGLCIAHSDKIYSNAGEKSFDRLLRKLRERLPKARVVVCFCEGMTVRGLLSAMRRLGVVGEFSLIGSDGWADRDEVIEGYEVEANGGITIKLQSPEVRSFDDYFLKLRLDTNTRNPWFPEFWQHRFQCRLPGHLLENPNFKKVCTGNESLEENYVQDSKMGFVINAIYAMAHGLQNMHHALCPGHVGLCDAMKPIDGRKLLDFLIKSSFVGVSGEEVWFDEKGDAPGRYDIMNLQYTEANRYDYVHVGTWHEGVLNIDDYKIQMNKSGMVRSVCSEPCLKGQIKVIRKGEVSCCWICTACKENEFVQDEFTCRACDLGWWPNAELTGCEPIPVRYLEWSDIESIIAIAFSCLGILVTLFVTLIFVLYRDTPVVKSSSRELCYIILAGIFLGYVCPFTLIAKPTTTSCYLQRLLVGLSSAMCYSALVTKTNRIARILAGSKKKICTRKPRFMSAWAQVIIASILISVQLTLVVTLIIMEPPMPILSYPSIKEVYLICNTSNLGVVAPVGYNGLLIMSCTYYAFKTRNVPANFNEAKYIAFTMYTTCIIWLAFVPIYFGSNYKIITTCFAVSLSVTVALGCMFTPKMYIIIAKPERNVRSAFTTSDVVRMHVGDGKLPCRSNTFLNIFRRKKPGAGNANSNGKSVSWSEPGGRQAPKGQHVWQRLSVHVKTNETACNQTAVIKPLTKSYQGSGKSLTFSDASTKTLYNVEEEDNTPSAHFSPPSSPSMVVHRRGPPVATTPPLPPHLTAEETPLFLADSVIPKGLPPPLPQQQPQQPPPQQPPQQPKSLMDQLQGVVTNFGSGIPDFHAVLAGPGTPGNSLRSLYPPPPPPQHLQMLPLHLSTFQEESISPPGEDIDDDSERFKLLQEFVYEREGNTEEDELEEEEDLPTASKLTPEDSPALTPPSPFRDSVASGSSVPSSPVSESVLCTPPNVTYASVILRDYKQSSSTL

| IC50 [nM] | SMILES |
| --- | --- |
| 9.48 | O=C(Cc1ccccc1)c1ccc2nc3c(cc2c1)CCCS3 [Compound 439] |
| 4.17 | COC1CCC(C(=O)c2ccc3nc4c(cc3c2)CCO4)CC1 (stereo not shown) [Compound 429] |
| 5.37 | Cc1cc2nc3c(cc2cc1C(=O)Cc1ccccc1)CCCO3 [Compound 504] |
| 9.44 | O=C(CC1CC2CCC1C2)c1ccc2nc3c(cc2c1)CCCO3 (stereo not shown) [Compound 497] |
| 5.85 | CCc1cc2cc(C(=O)C3CCC(OC)CC3)c(C)cc2nc1C (stereo not shown) [Compound 214] |
| 5.62 | O=C(Cc1ccccc1F)c1ccc2nc3c(cc2c1)CCCO3 [Compound 477] |
| 9.02 | CO[C@H]1CC[C@H](C(=O)c2ccc3nc4c(cc3c2)CCS4)CC1 [Compound 418] |
| 5.37 | COC1CCC(F)(C(=O)c2ccc3nc4c(cc3c2)CCCO4)CC1 (stereo not shown) [Compound 488] |
| 4.68 | COC1CCC(C(=O)c2ccc3nc4c(cc3c2)CCCS4)CC1 (stereo not shown) [Compound 176] |
| 9.77 | CCc1cc2cc(C(=O)Cc3ccccc3)ccc2nc1C [Compound 237] |
| 7.33 | COC1CCC(C(=O)c2ccc3nc4c(cc3c2)CCCC4)CC1 (stereo not shown) [Compound 420] |
| 7.16 | O=C(Cc1ccsc1)c1ccc2nc3c(cc2c1)CCCO3 [Compound 465] |
| 3.31 | Cc1cc2cc3c(cc2cc1C(=O)Cc1ccccc1)CCCS3 [Compound 506] |
| 8.81 | CC1Cc2cc3cc(C(=O)Cc4ccccc4)ccc3nc2O1 (stereo not shown) [Compound 455] |
| 7.67 | O=C(c1ccc2nc3c(cc2c1)CCS3)C1CCCCC1 [Compound 427] |

| SMILES | IC50 [nM] |
| --- | --- |
| O=C(Cc1ccccc1)c1ccc2nc3c(cc2c1)CCCO3 [Compound 432] | 5.79 |
| COC1CCC(C(=O)c2ccc3nc4c(cc3c2)CCCO4)CC1 (stereo not shown) [Compound 174] | 3.24 |

Same assay, conditions: inhibition of glutamate-induced intracellular Ca2+ rise, CHO cells expressing mGlu1 receptor; compounds with pIC50 between 7 and 8

| SMILES | IC50 [nM] |
| --- | --- |
| O=C(CCc1ccccc1)c1ccc2nc3c(cc2c1)CCCO3 [Compound 434] | 83.2 |
| O=C(c1ccc2nc3c(cc2c1)CCCO3)C1COc2ccccc2O1 (stereo not shown) [Compound 438] | 64.6 |
| CCc1cc2cc(C(=O)CC3CC4CCC3C4)ccc2nc1C (stereo not shown) [Compound 303] | 60.3 |
| CCc1c(C)nc2ccc(C(=O)[C@H]3CC[C@@H](OC)CC3)cc2c1CC [Compound 108] | 56.2 |
| CCc1cc2cc(C(=O)C3(c4ccccc4)CC3)ccc2nc1C [Compound 283] | 95.5 |
| CCCc1cc2cc(C(=O)Cc3ccccc3)ccc2nc1C [Compound 290] | 87.1 |
| O=C(c1ccc2nc3c(cc2c1)CCS3)C1(F)CC2CCC1C2 (stereo not shown) [Compound 496] | 66.1 |
| CCc1cc2cc(C(=O)C34CCC(CC3)C4)ccc2nc1C [Compound 300] | 83.2 |
| CCc1cc2cc(C(=O)C3(F)CCC(OC)CC3)ccc2nc1Cl (single isomer, unassigned) [Compound 221] | 61.7 |
| CO[C@H]1CC[C@H](C(=O)c2ccc3nc4c(cc3c2)CCCO4)CC1 [Compound 175] | 19.5 |
| CCc1cc2cc(C(=O)C3CCC(OC)CC3)ccc2nc1NC(=O)C12CC3CC(CC(C3)C1)C2 (stereo not shown) [Compound 199] | 85.1 |
| CCc1cc2cc(C(=O)Cc3ccccc3OC)ccc2nc1C [Compound 236] | 67.6 |
| CCCc1cc2cc(C(=O)[C@H]3CC[C@@H](OC)CC3)ccc2nc1OC [Compound 97] | 83.2 |
| CCc1cc2cc(C(=O)Cc3ccccc3)ccc2nc1F [Compound 527] | 58.9 |
| CCCc1cc2cc(C(=O)CC3CC4CCC3C4)ccc2nc1C (stereo not shown) [Compound 307] | 77.6 |
| CCc1cc2cc(C(=O)[C@H]3CC[C@@H](OC)CC3)ccc2nc1NC(=O)C1CCN(C(C)=O)CC1 [Compound 193] | 61.7 |
| O=C(c1ccc2nc3c(cc2c1)CCCS3)C1COc2ccccc2O1 (stereo not shown) [Compound 512] | 74.1 |
| CCc1cc2cc(C(=O)[C@H]3CC[C@@H](OC)CC3)ccc2[nH]c1=S [Compound 36] | 100 |
| COCc1cc2cc(C(=O)[C@H]3CC[C@H](OC)CC3)ccc2nc1C [Compound 286] | 93.3 |
| O=C(c1ccc2nc3c(cc2c1)CCS3)C1COc2ccccc2C1 (stereo not shown) [Compound 466] | 79.4 |
| CN(C)CC(C(=O)c1ccc2nc3c(cc2c1)CCS3)c1ccccc1 (stereo not shown) [Compound 442] | 93.3 |
| O=C(Cc1ccc(F)c(F)c1)c1ccc2nc3c(cc2c1)CCCO3 [Compound 474] | 74.1 |
| CCc1cc2cc(C(=O)[C@H]3CC[C@@H](OC)CC3)ccc2nc1NC(=O)c1ccc(=O)[nH]c1 [Compound 191] | 69.2 |
| O=C(c1ccc2nc3c(cc2c1)CCS3)[C@H]1CC[C@H](O)CC1 [Compound 422] | 95.5 |

Results, then the compound that gave them:

| IC50 [nM] | SMILES |
| --- | --- |
| 19.5 | O=C(Cc1ccc(F)cc1)c1ccc2nc3c(cc2c1)CCCO3 [Compound 475] |
| 17.4 | CCc1cc2cc(C(=O)C3(C)CCC(OC)CC3)ccc2nc1C (stereo not shown) [Compound 242] |
| 11.7 | COC1CCCC(C(=O)c2ccc3nc4c(cc3c2)CCCO4)C1 (stereo not shown) [Compound 440] |
| 16.2 | CO[C@H]1CC[C@@H](C(=O)c2ccc3nc(C)ccc3c2)CC1 [Compound 238] |
| 14.8 | CCc1cc2cc(C(=O)C3CCC(OC)CC3)ccc2nc1NC(=O)CCCc1ccc(OC)c(OC)c1 (stereo not shown) [Compound 341] |
| 12.9 | COC1CCC(C(=O)c2ccc3nc4c(cc3c2)CCN4C)CC1 (stereo not shown) [Compound 423] |
| 56.2 | CCc1cc2cc(C(=O)C3CCC(OC)CC3)ccc2nc1NC(=O)Nc1ccccc1SC (stereo not shown) [Compound 373] |
| 49 | CO[C@H]1CC[C@@H](C(=O)c2ccc3nc(C)c(CN(C)C)cc3c2)CC1 [Compound 287] |
| 43.7 | COC1CCC(C(=O)c2ccc3nc4c(cc3c2)CCO4)CC1 (stereo not shown) [Compound 429] |
| 22.4 | O=C(c1ccc2nc3c(cc2c1)CCCO3)C1CC2C=CC1C2 (stereo not shown) [Compound 461] |
| 18.2 | CCc1cc2cc(C(=O)C3CCC(OC)CC3)ccc2nc1NC(=O)CCCC1CCCCC1 (stereo not shown) [Compound 346] |
| 23.4 | CCc1cc2cc(C(=O)C3CC4CC(O)C3C4)ccc2nc1Cl (stereo not shown) [Compound 281] |
| 45.7 | COC1CCC(C(=O)c2ccc3nc4c(cc3c2)CCCO4)=CO1 (stereo not shown) [Compound 460] |
| 16.6 | CCc1cc2cc(C(=O)C3(F)CCC(OC)CC3)ccc2nc1C (stereo not shown) [Compound 224] |
| 23.4 | O=C(c1ccc2nc3c(cc2c1)CCCS3)C1CC2CCC1C2 (stereo not shown) [Compound 445] |
| 16.6 | O=C(Cc1ccc(Br)cc1)c1ccc2nc3c(cc2c1)CCCO3 [Compound 498] |
| 46.8 | CCc1cc2cc(C(=O)C3CCC(OC)CC3)ccc2nc1NC(=O)C1CCC(OC)CC1 (stereo not shown) [Compound 343] |
| 30.2 | CCc1cc2cc(C(=O)[C@H]3CC[C@@H](OC)CC3)ccc2nc1N(C)C [Compound 128] |
| 38.9 | CCOCC(=O)Nc1nc2ccc(C(=O)C3CCC(OC)CC3)cc2cc1CC (stereo not shown) [Compound 326] |
| 49 | O=C(CCc1ccccc1)c1ccc2nc3c(cc2c1)CCS3 [Compound 448] |
| 19.1 | O=C(c1ccc2nc3c(cc2c1)CCS3)C1CC2CCC1C2 (stereo not shown) [Compound 447] |
| 12.6 | O=C(Cc1ccccc1)c1ccc2nc3sccc3cc2c1 [Compound 462] |
| 40.7 | CC1CCC(C(=O)c2ccc3nc4c(cc3c2)CCS4)CC1 (stereo not shown) [Compound 430] |
| 22.9 | CCO[C@H]1CC[C@@H](C(=O)c2ccc3nc(C)c(CC)cc3c2)CC1 [Compound 115] |
| 13.5 | CCc1cc2cc(C(=O)C3(F)CCC(OC)CC3)ccc2nc1Cl (single isomer, unassigned) [Compound 220] |

| IC50 [nM] | SMILES |
| --- | --- |
| 44.7 | CCc1cc2cc(C(=O)Cc3ccccc3)ccc2nc1Cl [Compound 117] |
| 11.5 | O=C(c1ccc2nc3c(cc2c1)CCS3)[C@H]1CC[C@@H](O)CC1 [Compound 421] |
| 11.2 | CCc1cc2cc(C(=O)C3CCC(OC)CC3)ccc2nc1NC(=O)c1ccc(=O)[nH]c1 (stereo not shown) [Compound 334] |
| 12 | CO[C@H]1CC[C@H](C(=O)c2ccc3nc4c(cc3c2)CCCS4)CC1 [Compound 178] |
| 44.7 | CCCc1cc2cc(C(=O)[C@H]3CC[C@@H](OC)CC3)ccc2nc1Cl [Compound 291] |
| 38 | CCc1cc2cc(C(=O)C3CCC(OC)CC3)ccc2nc1NC(=O)C1CCCO1 (stereo not shown) [Compound 356] |
| 12.3 | CCc1cc2cc(C(=O)C3CCC(OC)CC3)ccc2nc1NC(=O)CCSC (stereo not shown) [Compound 338] |
| 35.5 | O=C(c1ccc2nc3c(cc2c1)CCCO3)C1CC2CCC1O2 (stereo not shown) [Compound 456] |
| 37.2 | COc1ccc2cc(C(=O)[C@H]3CC[C@@H](OC)CC3)ccc2n1 [Compound 91] |
| 27.5 | O=C(Cc1ccccc1)c1ccc2nc3c(cc2c1)CCC3 [Compound 446] |
| 28.8 | O=C(Cc1cccc(F)c1)c1ccc2nc3c(cc2c1)CCCS3 [Compound 484] |
| 16.6 | COC1CCCC(C(=O)c2ccc3nc4c(cc3c2)CCCO4)C1 (stereo not shown) [Compound 437] |
| 30.2 | CCc1cc2cc(C(=O)C3CCC(OC)CC3)ccc2nc1NC(=O)C1CCCCC1 (stereo not shown) [Compound 344] |
| 33.1 | CCc1cc2cc(C(=O)Cc3cccs3)ccc2nc1C [Compound 298] |
| 35.5 | O=C(Cc1ccccc1)c1ccc2nc3c(cc2c1)CCCCC3 [Compound 454] |
| 24.5 | CC1CCC(C(=O)c2ccc3nc4c(cc3c2)CCS4)CC1 (stereo not shown) [Compound 431] |
| 53.7 | CCc1cc2cc(C(=O)Cc3ccccc3)ccc2nc1N [Compound 289] |
| 17 | O=C(c1ccc2nc3c(cc2c1)CCS3)C12CC3CC(CC(C3)C1)C2 [Compound 449] |
| 55 | O=C(c1ccc2nc3c(cc2c1)CCCO3)C1CCc2ccccc2C1 (stereo not shown) [Compound 436] |
| 38.9 | CCc1cc2cc(C(=O)C3CCC(OC)CC3)ccc2nc1NC(=O)C1CCN(C(C)=O)CC1 (stereo not shown) [Compound 333] |
| 44.7 | O=C(CC1CC2CCC1C2)c1ccc2nc(Cl)ccc2c1 (stereo not shown) [Compound 313] |
| 13.8 | O=C(Cc1ccc(F)cc1)c1ccc2nc3c(cc2c1)CCCS3 [Compound 483] |
| 39.8 | CCc1cc2cc(C(=O)C3CCC(OC)CC3)ccc2nc1NC(=O)Nc1ccc(N(C)C)cc1 (stereo not shown) [Compound 369] |
| 41.7 | O=C(c1ccc2nc3c(cc2c1)CCCO3)C1CC=CCC1 (stereo not shown) [Compound 435] |
| 36.3 | CCc1cc2cc(C(=O)Cc3ccc(F)c(F)c3)ccc2nc1C [Compound 277] |
